How the values were obtained:
[1] = target: serotonin 5-HT2C receptor (Homo sapiens, UniProt P28335, I156V/I160V/N158S); type: cell-based
[2] = tested on: SD female rats; test: stress urinary incontinence: leak point pressure before and after administration (Experimental Example 5a); type: in vivo, rat; conditions: i.v., spinal cord-transected SD female rats
Experimental: The effect of the compound of the present invention for stress urinary incontinence was measured by comparing the leak point pressure before and after the administration of the compound as shown below. SD female rats (body weight 200-270 g) were anesthetized with urethane (Wako Pure Chemical Industries, Ltd.), and the spinal cord was cut at T8-9 level to eliminate the micturition reflex. During the operation, isoflurane anesthesia was added as necessary. The rats were fixed at a dorsal position, and two catheters (PE-100; Clay Adams) were indwelled in the bladder. One of the catheters was filled with saline stained with Evans Blue dye (Merck), and connected to a 50 ml syringe (TERUMO CORPORATION) fixed on an infusion pump (KD Scientific) via a three-way cock. The other catheter was connected to a pressure transducer (DX-100; NIHON KOHDEN CORPORATION), and signals of the transducer were transmitted to computer via an amplifier (blood pressure amplification unit AP-641G; NIHON KOHDEN CORPORATION) and a data analyzer (BIOPAC; MP100), and recorded on a hard disk. The data was analyzed on the computer using a software (BIOPAC; AcqKnowledge). A DMA/PEG400 (1:1) solution was intravenously administered to the rats at 0.5 mL/kg. From 10 min later, saline was injected into the bladder using the infusion pump at a rate of 360 ml/hr, infusion was stopped on the moment fluid leakage from the urethral meatus was observed, and the solution in the bladder was discharged by opening the three-way cock. The maximum intravesical pressure during infusion was taken as a leak point pressure, which was measured repeatedly until the value was stabilized, and the average value of the last three measures was taken as the data. […] Williams test was used for statistical calculation.

[3] = tested on: Male F344 rats; test: obesity: food consumption after single gavage dose (Experimental Example 6a); type: in vivo, rat; conditions: 0.5 mg/mL in 0.5% methylcellulose, 2 mL/kg by gavage; 24 hr after administration; obese F344 rats on high-fat diet
Experimental: Experimental Example 6a The effect of the compound of the present invention for obesity was measured using the food consumption calculated as follows as an index. Male F344 rats (CLEA Japan, Inc.) were purchased at 5 weeks of age, and raised by groups on a solid high-fat diet with fat content 45 kcal % (D12451, Research Diets). When sufficient obesity was observed (40 to 60-week-old), they were raised singly, and given a powder high-fat diet with lipid content 45 kcal % […], Research Diets) in a feeder. The rats were grouped using body weight and food consumption (18:00-8:00) one day before administration as indices. […] A 0.5% methylcellulose solution was administered to the control group. After administration, a previously-weighed feeder was placed in the breeding cage. The feeder was weighed 24 hr after the administration and the food consumption was calculated.

[4] = tested on: female spinal cord-transected rats with bilaterally transected hypogastric nerve and pudendal nerve; test: organ prolapse: urethral closure response induced by increased intravesical pressure (Experimental Example 7a); type: in vivo, rat; parameters: unit not given here; conditions: 1 mg/kg, i.v.; evaluated 10 min after administration
Experimental: The effect of the compound of the present invention for organ prolapse was measured by examining the enhancement of urethral closure response by pelvic floor muscles (iliococcygeal muscle, pubococcygeal muscle etc.) induced by an increased intravesical pressure, by compound administration. The enhancing action of the compound on urethral closure response induced by an increased intravesical pressure was measured using female spinal cord-transected rats with bilaterally transected hypogastric nerve and pudendal nerve. SD female rats (body weight 246-298 g) were anesthetized with urethane, and the spinal cord was cut at T8-9 level to eliminate the micturition reflex. During the operation, isoflurane anesthesia was added as necessary. After abdominal section, bladder neck was ligated with a suture thread, and then the hypogastric nerve and pudendal nerve were bilaterally transected. […] The changes in the topical pressure within the urethra (hereinafter conveniently indicated as urethral pressure) as measured by the microtip transducer was transmitted to a computer via an amplifier and a data intake device, and recorded on a hard disc. […] The reaction of the urethra induced by an increased intravesical pressure was measured repeatedly until the value is stabilized, and the average of the last 2 measures was taken as the value before drug administration. […]

[5] = tested on: male F344 rats (DIO-F344 rat); test: obesity: body weight and food consumption in high-fat diet-loaded rats, osmotic pump (Experimental Example 6b); type: in vivo; conditions: subcutaneous osmotic pump; for body weight loss (%): 14 days
Experimental: The effect of the compound of the present invention for obesity was measured using high-fat diet-loaded rats based on the effects on body weight and food consumption. 38 to 60-week-old male F344 rats (DIO-F344 rat) raised on a […] fat high-fat diet (D12451, Research Diets) from 7 weeks of age were used. They were grouped based on the body weight one day before operation. The compound of Example 8 was dissolved in saline, filled in an osmotic pump (Alzet osmotic pump 2mL2 type), and subcutaneously implanted under isoflurane anesthesia. The body weight was measured on completion of the operation, and measured again at 14 days postoperation. In addition, the amount of remaining food was measured, and food consumption for 14 days was measured. For statistical calculation, Williams test was used.

Sequence of serotonin 5-HT2C receptor (P28335 33-458 I156V/N158S/I160V limits assumed): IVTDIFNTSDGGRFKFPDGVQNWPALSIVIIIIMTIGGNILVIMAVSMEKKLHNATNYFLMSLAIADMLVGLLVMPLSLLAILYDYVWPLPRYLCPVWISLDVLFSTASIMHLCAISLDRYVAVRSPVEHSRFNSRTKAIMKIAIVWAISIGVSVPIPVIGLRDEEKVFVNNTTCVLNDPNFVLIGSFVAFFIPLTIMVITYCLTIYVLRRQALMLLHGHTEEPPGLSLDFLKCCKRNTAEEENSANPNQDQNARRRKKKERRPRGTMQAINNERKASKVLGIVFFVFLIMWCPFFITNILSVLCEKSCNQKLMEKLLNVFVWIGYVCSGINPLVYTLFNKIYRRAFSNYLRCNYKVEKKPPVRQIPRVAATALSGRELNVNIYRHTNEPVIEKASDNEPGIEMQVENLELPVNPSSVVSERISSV

CC(C)Oc1cnc2c(n1)OCCNC2.Cl [Example 2, 3-(1-methylethoxy)-6,7,8,9-tetrahydropyrazino[2,3-f][1,4]oxazepine hydrochloride]
ratio (%) relative to maximum response by 5-HT (1 μM) [1]: 93%

C[C@@H]1COCCN1c1cnc2c(n1)OCCNC2.Cl [Example 5, 3-[(3R)-3-methylmorpholin-4-yl]-6,7,8,9-tetrahydropyrazino[2,3-f][1,4]oxazepine hydrochloride]
ratio (%) relative to maximum response by 5-HT (1 μM) [1]: 95%
Change in leak point pressure (cmH2O) ([2]; 0.03 mg/kg): 5.2 ± 1.7 cmH2O
Change in leak point pressure (cmH2O) ([2]; 0.1 mg/kg): 9.1 ± 1.3 cmH2O
Change in leak point pressure (cmH2O) ([2]; 0.3 mg/kg): 13.6 ± 2.4 cmH2O
Change in leak point pressure (cmH2O) ([2]; 1 mg/kg): 19.6 ± 1.9 cmH2O
suppression of food consumption as compared to the control group [3]: 21.8%
urethral closure respons (ratio relative to value before administration) [4]: 227 ± 32

C[C@H]1CNCc2ncc(N3CCOCC3)nc2O1 [Example 6, (6S)-6-methyl-3-(morpholin-4-yl)-6,7,8,9-tetrahydropyrazino[2,3-f][1,4]oxazepine]
ratio (%) relative to maximum response by 5-HT (1 μM) [1]: 102%

C[C@@H]1COCCN1c1cnc2c(n1)O[C@@H](C)CNC2.Cl [Example 7, (6S)-6-methyl-3-[(3R)-3-methylmorpholin-4-yl]-6,7,8,9-tetrahydropyrazino[2,3-f][1,4]oxazepine hydrochloride]
ratio (%) relative to maximum response by 5-HT (1 μM) [1]: 108%

CC(C)N(C)c1cnc2c(n1)OCCNC2.Cl [Example 8, N-methyl-N-(1-methylethyl)-6,7,8,9-tetrahydropyrazino[2,3-f][1,4]oxazepin-3-amine hydrochloride]
ratio (%) relative to maximum response by 5-HT (1 μM) [1]: 95%
Change in leak point pressure (cmH2O) ([2]; 0.1 mg/kg): 5.4 ± 1.6 cmH2O
Change in leak point pressure (cmH2O) ([2]; 0.3 mg/kg): 10.8 ± 3.3 cmH2O
Change in leak point pressure (cmH2O) ([2]; 1 mg/kg): 17.3 ± 3.4 cmH2O
Change in leak point pressure (cmH2O) ([2]; 3 mg/kg): 23.6 ± 3.3 cmH2O
food consumption/14 days ([5]; 3 mg/kg/day): 150 ± 7 g
body weight loss (%) ([5]; 3 mg/kg/day): 4.8 ± 0.5%
food consumption/14 days ([5]; 10 mg/kg/day): 140 ± 6 g
body weight loss (%) ([5]; 10 mg/kg/day): 4.9 ± 0.3%
food consumption/14 days ([5]; 30 mg/kg/day): 110 ± 2 g
body weight loss (%) ([5]; 30 mg/kg/day): 7.5 ± 0.3 %
urethral closure respons (ratio relative to value before administration) [4]: 192 ± 13

CC[C@@H]1COCCN1c1cnc2c(n1)OCCNC2.Cl [Example 9, 3-[(3R)-3-ethylmorpholin-4-yl]-6,7,8,9-tetrahydropyrazino[2,3-f][1,4]oxazepine hydrochloride]
ratio (%) relative to maximum response by 5-HT (1 μM) [1]: 103%

Cl.c1nc2c(nc1C1CC1)OCCNC2 [Example 10, 3-cyclopropyl-6,7,8,9-tetrahydropyrazino[2,3-f][1,4]oxazepine hydrochloride]
ratio (%) relative to maximum response by 5-HT (1 μM) [1]: 89%
